In paper PMC2990584, “Phase Ib study of CP-868,596, a PDGFR inhibitor, combined with docetaxel with or without axitinib, a VEGFR inhibitor” (British Journal of Cancer, 2010):

Key:
PDGFR signalling pathway = assay: Blood biomarkers of the PDGFR signalling pathway (SDS-PAGE, LI-COR); type: in vivo, human
Experimental: Blood samples for the evaluation of biomarkers potentially related to the PDGFR signalling pathway (serum Src homology phosphatase (SHP)2, phopho(p)-SHP2, pAKT, and pS6) were collected within 4 days of baseline and on day 14 in each cohort. Protein levels were analysed using gel electrophoresis (SDS–PAGE) and the LI-COR immunodetection system with appropriate antibodies.

tumour vasculature = assay: DCE-MRI tumoural analysis; type: in vivo, human; conditions: DL 2, eight patients
Experimental: The DCE time course in the tumour was analysed on a pixel-by-pixel basis by fitting the data to the Kety equation and by integrating the area under the initial (i.e. the first 90 s) uptake curve. The contrast-agent concentration time course in plasma and tissue was inferred from the change in T1-weighted signal as a function of time. The Kety equation fitted the tissue contrast-agent time course to a two-compartment model: […] Ct are plasma and tissue concentration, respectively, K^trans is volume endothelial transfer constant between plasma and the extracellular extravascular space (EES), and Ve is fractional EES volume ([Ashton et al, 2008]).

PDGFR-β tyrosine kinase = biological target: PDGFR-β tyrosine kinase; parameters: method as in Lewis et al, 2009; conditions: ref Lewis et al, 2009, cited from earlier work
advanced solid tumours = assay: Antitumour activity (RECIST, FDG-PET, CT); type: in vivo, human; conditions: single patient, metastatic epithelioid sarcoma
Experimental: Radiological assessments were conducted at screening and within 7 days prior to cycle 1 docetaxel dose for DLs 1–3, and at screening and cycle 2 day 1 for DL 4. Subsequent assessments were every other cycle for all DLs.

[1] = Pharmacokinetics in patients (HPLC/tandem MS, non-compartmental); type: in vivo, human
Experimental: In DL 4, sampling was conducted on day 8 (CP-868,596, axitinib, and docetaxel) and day 9 (CP-868,596 and axitinib) of cycle 1: samples were collected at 0 h (predose) and 1, 1.75, 3, 4.5, and 6.5 h post-dose on day 8 and at 0 h (predose) on day 9 for CP-868,596 and axitinib. Docetaxel concentrations were assessed at 1 (end of infusion), 1.75, and 6.5 h post-dose on day 8. Concentrations of CP-868,596, docetaxel, and axitinib were determined using validated HPLC/tandem mass spectrometry (HPLC/TMS) methods. Analytes were detected using an Applied-Biosystem Sciex API 3000/4000 LC/TMS system (MDI SCIEX, Concord, ON, Canada) operating in positive ion Electrospray mode. Non-compartmental pharmacokinetic analysis was performed using WinNonlin, version 3.2 (Pharsight, Mountain View, CA, USA). […] Tmax, half-life (t1/2), AUC0–48, and AUC0–infinity. […] Descriptive statistics were used when analysing patient demographics, safety, and tumour response data. Paired t-test was used to assess the impact of co-administration of docetaxel on CP-868,596 pharmacokinetics.

[2] = test system: patients with advanced cancers; parameters: method as in Lewis et al, 2009; conditions: ref Lewis et al, 2009, cited from earlier work
xenograft models = test system: xenograft models; parameters: method as in Whalen et al, 2005; conditions: ref Whalen et al, 2005; cited from earlier work
[3] = test system: patients with advanced solid tumors; parameters: method as in Rugo et al, 2005; conditions: ref Rugo et al, 2005; cited from earlier work
[4] = test system: PDGFR-β overexpressing mesothelioma cell lines; parameters: method as in Wilmink and Richel, 2008; conditions: in vitro; ref Wilmink and Richel, 2008; cited from earlier work

**Q.** Which “SHP and pSHP relative to baseline” value (PDGFR signalling pathway; day 14, DL 1 and DL 2, n=10) does the source give for `CC1(COc2ccc3c(c2)ncn3-c2ccc3cccc(N4CCC(N)CC4)c3n2)COC1` [CP-868,596] here?
**A.** The value was “unchanged”.

**Q.** And the “levels of pS6 in peripheral blood mononuclear cells relative to baseline” value (PDGFR signalling pathway; day 14, DL 1 and DL 2, n=11, P=0.021)?
**A.** Its value is “significantly decreased”.

**Q.** And the “levels of pAKT relative to baseline” value (PDGFR signalling pathway; day 14, DL 1 and DL 2, n=12)?
**A.** Its value is “non-significant increase”.

**Q.** What about the “perfused AUC, median percentage change at day 14 relative to baseline” value (tumour vasculature) of the same compound?
**A.** The value was −4.4%.

**Q.** And the “perfused K^trans, median percentage change at day 14 relative to baseline” value (tumour vasculature)?
**A.** The value was 12.7%.

**Q.** And the “tumour volume, median percentage change at day 14 relative to baseline” value (tumour vasculature)?
**A.** The value was 14.3.

**Q.** And the “vascularised volume, median percentage change at day 14 relative to baseline” value (tumour vasculature)?
**A.** Its value is 16.6.

**Q.** And the IC50 (PDGFR-β tyrosine kinase; PDGFR-β tyrosine kinase)?
**A.** The IC50 was 0.4 ng ml^–1.

**Q.** What about the “selectivity for PDGFR vs other related kinases” value (PDGFR-β tyrosine kinase) of the same compound?
**A.** Its value is 50–100 fold.

**Q.** And the FDG-PET response (advanced solid tumours)?
**A.** The FDG-PET response was “partial metabolic response”.

**Q.** And the “pharmacokinetic parameters and plasma concentration profiles on co-administration” value ([1]; co-administration of docetaxel or docetaxel plus axitinib)?
**A.** Its value is “unaffected”.

**Q.** And the “impact of co-administration of docetaxel on Cmax and AUC0–tau” value ([1]; human, in vivo)?
**A.** The value was “no significant impact”.

**Q.** And the most common toxicities [2]?
**A.** The most common toxicities was “nausea, vomiting, diarrhoea, and transaminitis”.

**Q.** And the recommended dosage ([2]; single agent, with food)?
**A.** Its recommended dosage is 100 mg twice daily (BID).

**Q.** And the “Dose-limiting toxicities (DLTs) identified” value ([2]; single agent)?
**A.** Its value is “haematuria, transaminitis, insomnia, and nausea/vomiting”.

**Q.** What about the “cytotoxicity of docetaxel and gemcitabine on combination” value (xenograft models) of the same compound?
**A.** Its value is “increased”.

**Q.** With `CNC(=O)c1ccccc1Sc1ccc2c(/C=C/c3ccccn3)n[nH]c2c1` [axitinib] as the compound, how does the main toxicities [3] read?
**A.** The main toxicities was “fatigue, nausea, diarrhoea, and hypertension”.

**Q.** With `Cc1ccc(NC(=O)c2ccc(CN3CCN(C)CC3)cc2)cc1Nc1nccc(-c2cccnc2)n1` [imatinib] as the compound, how does the effect on cells [4] read?
**A.** Its effect on cells is “induced cytotoxicity and apoptosis”.
